Results on eleven compounds are retold here after US8008291B2 (Mimetica Pty Ltd, priority 2008, dated 2011).

In general, IC50 refers to the point on the concentration scale where inhibition reaches its midpoint.

This test deals with T1, human MC5R (hMC5R) (Homo sapiens, UniProt P33032).
T1 construct: purchased Perkin Elmer RBXMC5M400UA
T1 sequence (P33032 whole entry): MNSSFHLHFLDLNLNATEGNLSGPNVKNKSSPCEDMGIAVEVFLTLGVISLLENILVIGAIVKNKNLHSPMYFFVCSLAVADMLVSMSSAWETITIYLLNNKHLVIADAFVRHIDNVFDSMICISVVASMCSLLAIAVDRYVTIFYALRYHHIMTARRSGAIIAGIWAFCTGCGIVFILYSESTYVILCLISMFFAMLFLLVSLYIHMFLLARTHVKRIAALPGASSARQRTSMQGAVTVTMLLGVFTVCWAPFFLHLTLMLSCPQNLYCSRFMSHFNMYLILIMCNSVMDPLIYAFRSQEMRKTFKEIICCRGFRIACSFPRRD
Nature of the test: Human MC5R radioligand binding assay (membranes, [125I] NDP-MSH displacement). The note with it: hMC5R binding; tested as trifluoroacetate or hydrochloride salts, or free bases; read-out: MC5R radioligand IC50. The essentials: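 Displacement of [125I]NDP-MSH (radioiodinated in house, HPLC-purified) from hMC5R membranes by test compound measured after 1 hr incubation at 37° C.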
As to `CC[C@H](CN1CC[C@@H](CNC(=O)c2ccc(Cl)c(Cl)c2)N[C@@H](CCN2CCCC[C@@H]2C)C1=O)c1ccccc1` [Compound 453, 3,4-dichloro-N-(((3S,5S)-3-(2-((S)-2-methylpiperidin-1-yl)ethyl)-2-oxo-1-((S)-2-phenylbutyl)-1,4-diazepan-5-yl)methyl)benzamide], the IC50 is less than 10 nM.

Regarding `CC[C@H](CN1CC[C@@H](CNC(=O)c2ccc(Cl)c(Cl)c2)N[C@@H](CCN(C)C(C)(C)C)C1=O)c1ccccc1` [Compound 454, N-(((3S,5S)-3-(2-(tert-butyl(methyl)amino)ethyl)-2-oxo-1-((S)-2-phenylbutyl)-1,4-diazepan-5-yl)methyl)-3,4-dichlorobenzamide], the IC50 was less than 100 nM.

For the compound `CC[C@H](CN1CCC(CNC(=O)c2ccc3cc(Cl)ccc3c2)NC(C2CCN(CC)CC2)C1=O)c1ccccc1` (stereo partly drawn) [Compound 455, 6-chloro-N-((3-(1-ethylpiperidin-4-yl)-2-oxo-1-((S)-2-phenylbutyl)-1,4-diazepan-5-yl)methyl)-2-naphthamide], the IC50 is less than 100 nM.

`O=C1[C@H](CCN2CCCCC2)N[C@H](CNCc2ccc(Cl)c(Cl)c2)CCN1CC(c1ccccc1)c1ccccc1` [Compound 456, (3S,5S)-5-((3,4-dichlorobenzylamino)methyl)-1-(2,2-diphenylethyl)-3-(2-(piperidin-1-yl)ethyl)-1,4-diazepan-2-one]: the IC50 is less than 100 nM.

`CC[C@H](CN1CC[C@@H](CNC(=O)c2ccc3cc(Cl)ccc3c2)N[C@@H](CCNC(=N)N)C1=O)c1ccccc1` [Compound 457, 6-chloro-N-(((3S,5S)-3-(2-guanidinoethyl)-2-oxo-1-((S)-2-phenylbutyl)-1,4-diazepan-5-yl)methyl)-2-naphthamide]: the IC50 was less than 100 nM.

For `CC[C@H](CN1CC[C@@H](CNC(=O)c2ccc3cc(Cl)ccc3c2)N[C@@H](CCNC(=N)NC)C1=O)c1ccccc1` [Compound 458, 6-chloro-N-(((3S,5S)-3-(2-(3-methylguanidino)ethyl)-2-oxo-1-((S)-2-phenylbutyl)-1,4-diazepan-5-yl)methyl)-2-naphthamide], the IC50 is less than 100 nM.

On to `CC[C@@H](CN1CC[C@@H](CNC(=O)c2ccc(Cl)c(Cl)c2)N[C@@H](CCN2CCCCC2)C1=O)C(C)C` [Compound 461, 3,4-dichloro-N-(((3S,5S)-1-((R)-2-ethyl-3-methylbutyl)-2-oxo-3-(2-(piperidin-1-yl)ethyl)-1,4-diazepan-5-yl)methyl)benzamide], for which the IC50 was less than 100 nM.

Regarding `CC[C@H](CN1CC[C@@H](CNC(=O)c2ccc(Cl)c(Cl)c2)N[C@@H](CCN2CCCCC2)C1=O)C(C)C` [Compound 462, 3,4-dichloro-N-(((3S,5S)-1-((S)-2-ethyl-3-methylbutyl)-2-oxo-3-(2-(piperidin-1-yl)ethyl)-1,4-diazepan-5-yl)methyl)benzamide], the IC50 was less than 100 nM.

Regarding `CC[C@H](CN1CC[C@@H](CNC(=O)c2ccc3cc(Cl)ccc3c2)N[C@@H](CC(C)(C)N)C1=O)c1ccccc1` [Compound 463, N-(((3S,5S)-3-(2-amino-2-methylpropyl)-2-oxo-1-((S)-2-phenylbutyl)-1,4-diazepan-5-yl)methyl)-6-chloro-2-naphthamide], the IC50 is less than 1000 nM.

As for `CC[C@H](CN1CC[C@@H](CNC(=O)c2ccc(Cl)c(Cl)c2)N[C@@H](CCN)C1=O)c1ccccc1` [Compound 464, N-(((3S,5S)-3-(2-aminoethyl)-2-oxo-1-((S)-2-phenylbutyl)-1,4-diazepan-5-yl)methyl)-3,4-dichlorobenzamide], the IC50 was less than 1000 nM.

As to `CC[C@H](CN1CC[C@@H](CNC(=O)c2ccc(Cl)c(Cl)c2)N[C@@H](CCNC(C)C)C1=O)c1ccccc1` [Compound 465, 3,4-dichloro-N-(((3S,5S)-3-(2-(isopropylamino)ethyl)-2-oxo-1-((S)-2-phenylbutyl)-1,4-diazepan-5-yl)methyl)benzamide], the half-inhibitory concentration (IC50) was less than 100 nM.
